From patent US20230048132A1, “CYCLIN-DEPENDENT KINASE INHIBITORS” (SPV THERAPEUTICS INC., priority 2018, published 2023)
Where “and” joins values, the source holds several entries; their conditions need not be identical. Equal values may be shown once. Read-outs that look alike come from different tables or passages of the source.

Experiments:
CDK4-CYCLIND1 = CDK4-CYCLIND1 (Homo sapiens, UniProt P11802); assay: CDK inhibition assay (microfluidic LabChip, IC50 format)
MAXFTN ZR-75-1 (ER+) = assay: 2D cell proliferation assay (CellTiter-Blue); type: cell-based; conditions: Homo sapiens, 72 h, three days of treatment, read-out: abs. IC50
Protocol: (§1) Viability of the cells was analyzed by using the CellTiter-Blue® Cell Viability Assay (Promega), and was performed according to manufacturer's instructions. Briefly, cells were harvested from exponential phase cultures (Chapter 6.6), counted and plated in 96-well flat-bottom microtiter plates at a cell density of 4,000-60,000 cells/well in a volume of 140 μl per well. After a 24 hours recovery period, 10 μL cell culture medium (six control wells/plate) or culture medium with test compound were added (Chapter 6.2). The compounds were applied at five concentrations in full-log increments up to 100 μM in duplicate. Cultures were incubated at 37° C. and 5% CO2 in a humidified atmosphere for another three days. After three days of treatment, 20 μl/well CellTiter-Blue® reagent was added. Following incubation with CellTiter-Blue® reagent for up to four hours, fluorescence (FU) was measured by using the Enspire Multimode Plate Reader (excitation λ=570 nm, emission λ=600 nm). For calculations, the mean values of duplicate/sextuplicate (untreated control) data were used.
(§2) An assay was considered fully evaluable if the following quality control criteria were fulfilled: • control/background ratio>3.0-Z′-factor calculated within the assay plate>0.5 [7]—coefficient of variation in the growth control wells <30%
(§3) Drug effects were expressed in terms of the percentage of the fluorescence signal, obtained by comparison of the mean signal in the treated wells with the mean signal of the untreated controls (expressed by the test-versus-control value, T/C-value [%]):
(§4) IC values are reported as relative IC50 values and absolute IC50 and IC70 values. […] The absolute IC70 value gives the concentration of the test compound that achieves T/C=30%. The relative IC50 value is the concentration of test compound that gives a response halfway between the top and bottom plateau of the sigmoidal concentration-response curve (inflection point of the curve). Calculation was done by 4parameter non-linear curve fit (Oncotest Data Warehouse Software).
(§5) If an IC50 or IC70 value could not be determined within the examined dose range (because a compound was either too active or lacked activity), the lowest or highest concentration studied was used for calculation of the geometric mean value.

MAXFLB MCF7 (ER+) = assay: 2D cell proliferation assay (CellTiter-Blue); type: cell-based; conditions: Homo sapiens, 72 h, three days of treatment, read-out: abs. IC50
Protocol: as §1, §2, §3, §4, §5

MEXF WM-266-4 = assay: 2D cell proliferation assay (CellTiter-Blue); type: cell-based; conditions: Homo sapiens, 72 h, three days of treatment, read-out: abs. IC50
Protocol: as §1, §2, §3, §4, §5

LXFA A549 = assay: 2D cell proliferation assay (CellTiter-Blue); type: cell-based; conditions: Homo sapiens, 72 h, three days of treatment, read-out: abs. IC50
Protocol: as §1, §2, §3, §4, §5

LXFL NCl-H1299 = assay: 2D cell proliferation assay (CellTiter-Blue); type: cell-based; conditions: 72 h, three days of treatment, read-out: abs. IC50
Protocol: as §1, §2, §3, §4, §5

LEXFAM MV4-11 = assay: 2D cell proliferation assay (CellTiter-Blue); type: cell-based; conditions: Homo sapiens, 72 h, three days of treatment, read-out: abs. IC50
Protocol: as §1, §2, §3, §4, §5

CDK6-CYCLIND3 = biological target: T1, CDK6-CYCLIND3 (Homo sapiens, UniProt Q00534); assay: CDK inhibition assay (microfluidic LabChip, IC50 format); type: biochemical
T1 construct: purchased Carna
T1 sequence (Q00534 whole entry): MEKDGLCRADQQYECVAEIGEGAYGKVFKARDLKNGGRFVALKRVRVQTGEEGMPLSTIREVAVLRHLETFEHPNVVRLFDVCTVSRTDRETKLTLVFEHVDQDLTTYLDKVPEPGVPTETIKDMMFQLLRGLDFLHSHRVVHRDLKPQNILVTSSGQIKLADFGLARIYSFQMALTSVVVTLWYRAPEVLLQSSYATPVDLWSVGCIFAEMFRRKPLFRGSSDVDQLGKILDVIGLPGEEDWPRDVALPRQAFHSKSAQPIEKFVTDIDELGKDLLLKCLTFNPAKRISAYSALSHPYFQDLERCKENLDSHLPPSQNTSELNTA
T1 sequence (P30281 whole entry partner): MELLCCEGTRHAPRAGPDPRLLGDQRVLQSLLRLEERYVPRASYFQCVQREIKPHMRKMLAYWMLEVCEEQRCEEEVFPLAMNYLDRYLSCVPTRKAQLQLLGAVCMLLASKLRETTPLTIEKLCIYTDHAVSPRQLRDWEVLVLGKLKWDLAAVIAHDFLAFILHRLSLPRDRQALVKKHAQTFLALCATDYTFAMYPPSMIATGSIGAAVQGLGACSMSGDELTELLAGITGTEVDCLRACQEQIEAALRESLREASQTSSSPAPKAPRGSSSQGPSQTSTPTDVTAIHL

CDK2-CYCLINE = biological target: T2, CDK2-CYCLINE (Homo sapiens, UniProt P24941); assay: as above; type: biochemical; conditions: Table 3; purified enantiomers; read-out: CDK2-E (E1/E2)
T2 construct: purchased Millipore

all cell lines tested = assay: 2D cell proliferation assay, geometric mean over the cell line panel; type: cell-based; conditions: Table 5 lower part; geometric mean over the 8-line panel; read-out: Geomean abs. IC50 value
Protocol: as §1, §4, §5
The overall potency of a compound was determined by the geometric mean IC50/IC70 values of all individual IC50/IC70 values. In the heatmap representation of IC50 and IC70 values, the distribution of the IC50 or IC70 values obtained for a test compound in the individual cell lines is given in relation to the geometric mean IC50 or IC70 value, obtained over all PDX models tested. The individual IC values range from 1/32-fold geometric mean IC (corresponding to very potent compound activity or high tumor sensitivity) to 32-fold geometric mean IC (corresponding to lack of compound activity or tumor resistance). The heatmap presentation, therefore, represents an antiproliferative “fingerprint” profile of a test compound.

CDK2-CYCLINA = biological target: T3, CDK2-CYCLINA (Homo sapiens, UniProt P24941); assay: CDK inhibition assay (microfluidic LabChip, IC50 format); type: biochemical
T3 construct: purchased Millipore

MAXFTN MDA-MB-231 (ER−) = assay: 2D cell proliferation assay (CellTiter-Blue); type: cell-based; conditions: Homo sapiens, 72 h, three days of treatment, read-out: abs. IC50
Protocol: as §1, §2, §3, §4, §5

LEXFAL MOLT-4 = assay: 2D cell proliferation assay (CellTiter-Blue); type: cell-based; conditions: Homo sapiens, 72 h, three days of treatment, read-out: abs. IC50
Protocol: as §1, §2, §3, §4, §5

CDK9-CYCLINT1 = biological target: T4, CDK9-CYCLINT1 (Homo sapiens, UniProt P50750); assay: CDK inhibition assay (microfluidic LabChip, IC50 format); type: biochemical
T4 construct: purchased Carna
T4 sequence (P50750 whole entry): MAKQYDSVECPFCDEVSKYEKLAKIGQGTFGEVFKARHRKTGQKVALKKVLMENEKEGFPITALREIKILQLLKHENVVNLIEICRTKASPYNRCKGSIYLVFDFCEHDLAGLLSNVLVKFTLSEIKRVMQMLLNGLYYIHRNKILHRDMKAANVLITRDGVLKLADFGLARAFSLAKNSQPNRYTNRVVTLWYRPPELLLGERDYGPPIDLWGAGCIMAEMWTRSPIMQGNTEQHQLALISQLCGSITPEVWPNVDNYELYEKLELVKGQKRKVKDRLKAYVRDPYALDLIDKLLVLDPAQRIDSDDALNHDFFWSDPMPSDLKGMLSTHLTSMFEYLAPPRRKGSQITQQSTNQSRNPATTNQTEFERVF
T4 sequence (O60563 whole entry partner): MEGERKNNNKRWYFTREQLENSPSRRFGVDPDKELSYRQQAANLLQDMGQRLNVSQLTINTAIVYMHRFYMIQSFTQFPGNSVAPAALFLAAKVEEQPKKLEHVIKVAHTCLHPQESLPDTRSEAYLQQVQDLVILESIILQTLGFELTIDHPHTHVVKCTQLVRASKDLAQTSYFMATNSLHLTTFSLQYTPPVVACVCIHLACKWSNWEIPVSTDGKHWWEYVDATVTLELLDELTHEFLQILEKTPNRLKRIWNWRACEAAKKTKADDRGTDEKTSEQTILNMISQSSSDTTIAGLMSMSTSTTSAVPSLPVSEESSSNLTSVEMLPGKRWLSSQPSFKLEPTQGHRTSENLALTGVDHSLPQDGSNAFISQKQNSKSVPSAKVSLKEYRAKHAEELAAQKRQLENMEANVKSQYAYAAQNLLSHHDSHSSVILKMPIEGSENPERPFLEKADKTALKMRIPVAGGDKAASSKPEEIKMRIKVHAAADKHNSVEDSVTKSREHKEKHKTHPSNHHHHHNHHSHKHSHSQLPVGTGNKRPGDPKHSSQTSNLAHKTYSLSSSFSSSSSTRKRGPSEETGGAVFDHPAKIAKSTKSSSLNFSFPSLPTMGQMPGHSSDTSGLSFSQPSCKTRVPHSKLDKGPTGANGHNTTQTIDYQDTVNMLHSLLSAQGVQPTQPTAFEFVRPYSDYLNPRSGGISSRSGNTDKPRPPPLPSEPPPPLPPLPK

CDK7 CyclinH = CDK7 CyclinH (Homo sapiens, UniProt P50613); assay: as above; type: biochemical; conditions: Table 4a
Chain of CDK7 CyclinH (P50613 whole entry): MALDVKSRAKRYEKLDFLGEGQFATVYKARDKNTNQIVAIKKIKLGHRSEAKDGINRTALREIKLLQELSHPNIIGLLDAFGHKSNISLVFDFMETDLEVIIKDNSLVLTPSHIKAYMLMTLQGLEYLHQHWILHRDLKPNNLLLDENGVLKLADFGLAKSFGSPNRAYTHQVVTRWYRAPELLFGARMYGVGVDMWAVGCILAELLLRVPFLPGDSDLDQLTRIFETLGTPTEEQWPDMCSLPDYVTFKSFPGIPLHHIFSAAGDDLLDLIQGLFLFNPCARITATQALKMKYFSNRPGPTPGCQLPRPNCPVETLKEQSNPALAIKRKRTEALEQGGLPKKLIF
Chain of CDK7 CyclinH (P51946 whole entry partner): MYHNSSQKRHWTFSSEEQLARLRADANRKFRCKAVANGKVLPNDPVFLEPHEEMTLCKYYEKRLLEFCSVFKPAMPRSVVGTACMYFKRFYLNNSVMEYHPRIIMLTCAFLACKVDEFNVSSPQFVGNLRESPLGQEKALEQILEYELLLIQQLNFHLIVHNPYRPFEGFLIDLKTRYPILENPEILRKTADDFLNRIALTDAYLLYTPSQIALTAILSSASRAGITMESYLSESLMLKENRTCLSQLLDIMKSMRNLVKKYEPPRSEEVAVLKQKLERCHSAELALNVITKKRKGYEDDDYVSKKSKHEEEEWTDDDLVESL
Chain of CDK7 CyclinH (P51948 whole entry partner): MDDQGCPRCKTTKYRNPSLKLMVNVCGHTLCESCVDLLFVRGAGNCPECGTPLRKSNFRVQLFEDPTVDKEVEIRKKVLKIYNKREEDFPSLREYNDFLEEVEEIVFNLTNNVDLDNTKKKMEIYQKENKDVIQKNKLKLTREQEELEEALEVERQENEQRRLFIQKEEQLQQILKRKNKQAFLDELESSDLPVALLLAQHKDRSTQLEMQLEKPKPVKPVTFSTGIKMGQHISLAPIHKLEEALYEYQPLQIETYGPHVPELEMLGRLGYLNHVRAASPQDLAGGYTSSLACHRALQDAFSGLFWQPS

[1] = Pharmacokinetics after oral administration; type: in vivo; conditions: rat, plasma, rats; for bioavailability: oral 100 mg/kg versus IV 30 mg/kg, read-out: BIOAVAILABILITY F; for AUC / Cmax / MRT / half-life: oral administration 100 mg/kg, N = 3
Protocol: (§6) Nonclinical pharmacokinetic (PK) parameters of lead CDK4/6/9 inhibitors were determined in an intravenous (IV) and oral study (p.o.) conducted in rats. Lead compounds were each administered as a single oral dose at 100 mg/kg or by IV bolus via the caudal vein at the dose of 30 mg/kg. Blood samples were collected at 0.25, 0.5, 1, 2, 4, 8, 12, and 24 hours post i.v. administration, and at 1, 2, 4, 8, 24 and 48 hours post oral administration. Plasma was processed for drug concentration analysis using a validated LCMS/MS method, and PK parameters were calculated by using WinNonlin.

[2] = Pharmacokinetics after IV bolus; type: in vivo; conditions: rat, plasma; rats; IV bolus 30 mg/kg; N = 3
Protocol: as §6

[3] = CDK4 (E1/E2), Table 3, purified enantiomers
[4] = Table 3, purified enantiomers, read-out: CDK6 (E1/E2)
[5] = Table 3, purified enantiomers, read-out: CDK2-A (E1/E2)
[6] = Table 3, purified enantiomers, read-out: CDK9-T (E1/E2)
[7] = CDK4 CyclinD1 IC50, Table 4a, a second value in parentheses for some compounds
[8] = Table 4a, read-out: CDK6 CyclinD3 IC50
[9] = Table 4a, read-out: CDK2 CyclinA IC50
[10] = Table 4a, read-out: CDK9 CyclinT1 IC50

Chain of CDK4-CYCLIND1 (P11802 whole entry): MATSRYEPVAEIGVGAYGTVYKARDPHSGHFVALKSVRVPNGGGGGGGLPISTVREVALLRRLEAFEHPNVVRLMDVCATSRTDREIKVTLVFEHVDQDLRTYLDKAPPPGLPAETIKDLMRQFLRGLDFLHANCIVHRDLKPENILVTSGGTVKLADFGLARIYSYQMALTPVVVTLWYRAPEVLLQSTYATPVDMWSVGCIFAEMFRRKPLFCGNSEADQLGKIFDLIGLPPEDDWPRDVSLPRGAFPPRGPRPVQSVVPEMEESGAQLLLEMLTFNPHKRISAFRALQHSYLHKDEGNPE
Chain of CDK4-CYCLIND1 (P24385 whole entry partner): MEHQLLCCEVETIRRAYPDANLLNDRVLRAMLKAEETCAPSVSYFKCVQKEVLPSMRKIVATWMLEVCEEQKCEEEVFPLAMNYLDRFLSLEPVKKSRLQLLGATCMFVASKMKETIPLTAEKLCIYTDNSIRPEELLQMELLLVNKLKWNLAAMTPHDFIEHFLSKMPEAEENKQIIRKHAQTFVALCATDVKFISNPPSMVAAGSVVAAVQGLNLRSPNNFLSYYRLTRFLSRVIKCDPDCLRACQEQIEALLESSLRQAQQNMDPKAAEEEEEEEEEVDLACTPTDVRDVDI

| IC50 (CDK4-CYCLIND1; [3]) | IC50 (MAXFLB MCF7 (ER+)) | IC50 (LXFA A549) | IC50 (LXFL NCl-H1299) | IC50 (LEXFAM MV4-11) | IC50 (CDK6-CYCLIND3; [4]) | IC50 (CDK2-CYCLINE) | IC50 (CDK2-CYCLINA; [5]) | IC50 (MAXFTN MDA-MB-231 (ER−)) | IC50 (LEXFAL MOLT-4) | IC50 (CDK9-CYCLINT1; [6]) | Structure (SMILES) | IC50 (MAXFTN ZR-75-1 (ER+)) | IC50 (MEXF WM-266-4) | IC50 (all cell lines tested) | other results |
| --- | --- | --- | --- | --- | --- | --- | --- | --- | --- | --- | --- | --- | --- | --- | --- |
| – | 62 nM | 440 nM | 229 nM | 28 nM | – | – | – | 172 nM | 97 nM | – | CN(C)[C@@H]1CCN(c2ccc(Nc3ncc4c(n3)N(C3CCCC3)C(=O)[C@]3(CCNC3=O)C4)cc2F)C1 [Example D176, (S)-8-cyclopentyl-2-((4-((R)-3-(dimethylamino)pyrrolidin-1-yl)-3-fluorophenyl)amino)-5,8-dihydro-7H-spiro[pyrido[2,3-d]pyrimidine-6,3′-pyrrolidine]-2′,7-dione] | 648 nM | 548 nM | 179 nM | IC50 (CDK4-CYCLIND1; [7]): 1.12 nM and 0.64 nM; IC50 (CDK6-CYCLIND3; [8]): 2.07 nM; IC50 (CDK7 CyclinH): 126 nM; IC50 (CDK2-CYCLINA; [9]): 33.3 nM; IC50 (CDK9-CYCLINT1; [10]): 2.73 nM |
| – | 88 nM | 148 nM | 108 nM | ≤ 10 nM | – | – | – | 300 nM | 84 nM | – | CC(C)N1CCN(c2ccc(Nc3ncc4c(n3)N(C3CCCC3)C(=O)[C@]3(CCNC3=O)C4)cc2)CC1 [Example D145, (S)-8-cyclopentyl-2-((4-(4-isopropylpiperazin-1-yl)phenyl)amino)-5,8-dihydro-7H-spiro[pyrido[2,3-d]pyrimidine-6,3′-pyrrolidine]-2′,7-dione] | ≥ 100000 nM | 47 nM | 189 nM | IC50 (CDK4-CYCLIND1; [7]): 0.784 nM; bioavailability [1]: 43.8%; AUC [1]: 21500 ng·h/mL; Cmax [1]: 4470 ng/mL; MRT [1]: 4.37 h; half-life [1]: 5.6 h; Cmax [2]: 7730 ng/mL; clearance [2]: 35.2 mL/min/kg; half-life [2]: 1.93 h; IC50 (CDK6-CYCLIND3; [8]): 1.65 nM; IC50 (CDK7 CyclinH): 153 nM; IC50 (CDK2-CYCLINA; [9]): 21.7 nM; IC50 (CDK9-CYCLINT1; [10]): 5.02 nM |
| 1050 nM | – | – | – | – | 2010 nM | > 100000 nM | > 100000 nM | – | – | > 100000 nM | O=C1NCC[C@]12Cc1cnc(Nc3ccc(N4CCNCC4)cn3)nc1N(C1CCCC1)C2=O [Example D57, (R)-8-cyclopentyl-2-((5-(piperazin-1-yl)pyridin-2-yl)amino)-5,8-dihydro-7H-spiro[pyrido[2,3-d]pyrimidine-6,3′-pyrrolidine]-2′,7-dione] | – | – | – | – |

Further lines, the molecule ahead of its results:

| Structure (SMILES) | IC50 (CDK4-CYCLIND1; [3]) | IC50 (MAXFLB MCF7 (ER+)) | IC50 (LXFA A549) | IC50 (LXFL NCl-H1299) | IC50 (LEXFAM MV4-11) | IC50 (CDK6-CYCLIND3; [4]) | IC50 (CDK2-CYCLINE) | IC50 (CDK2-CYCLINA; [5]) | IC50 (MAXFTN MDA-MB-231 (ER−)) | IC50 (LEXFAL MOLT-4) | IC50 (CDK9-CYCLINT1; [6]) | IC50 (MAXFTN ZR-75-1 (ER+)) | IC50 (MEXF WM-266-4) | IC50 (all cell lines tested) | other results |
| --- | --- | --- | --- | --- | --- | --- | --- | --- | --- | --- | --- | --- | --- | --- | --- |
| CC(C)N1CCN(c2ccc(Nc3ncc4c(n3)N(C3CCCC3)C(=O)[C@]3(CCNC3=O)C4)cc2F)CC1 [Example D54, (S)-8-cyclopentyl-2-((3-fluoro-4-(4-isopropylpiperazin-1-yl)phenyl)amino)-5,8-dihydro-7H-spiro[pyrido[2,3-d]pyrimidine-6,3′-pyrrolidine]-2′,7-dione] | 0.822 nM | 188 nM | 1400 nM | 212 nM | 10 nM | 1.65 nM | 106 nM | 45.6 nM | – | – | – | 10300 nM | 331 nM | 352 nM | – |
| O=C1NCC[C@@]12Cc1cnc(Nc3ccc(N4CCNCC4)c(F)c3)nc1N(C1CCCC1)C2=O [Example D50, (S)-8-cyclopentyl-2-((3-fluoro-4-(piperazin-1-yl)phenyl)amino)-5,8-dihydro-7H-spiro[pyrido[2,3-d]pyrimidine-6,3′-pyrrolidine]-2′,7-dione] | 0.78 nM | 80 nM | 338 nM | 187 nM | ≤ 10 nM | 1.29 nM | 62.4 nM | 29.1 nM | 150 nM | 101 nM | 4.37 nM | 23300 nM | 46 nM | 173 nM | – |
| O=C1NCC[C@]12Cc1cnc(Nc3ccc(N4CCNCC4)cc3)nc1N(C1CCCC1)C2=O [Example D55, (R)-8-cyclopentyl-2-((4-(piperazin-1-yl)phenyl)amino)-5,8-dihydro-7H-spiro[pyrido[2,3-d]pyrimidine-6,3′-pyrrolidine]-2′,7-dione] | 251 nM | – | – | – | – | 519 nM | 8880 nM | 6000 nM | – | – | 1800 nM | – | – | – | – |
| O=C1NCC[C@@]12Cc1cnc(Nc3ccc(N4CCNCC4)cc3)nc1N(C1CCCC1)C2=O [Example D56, (S)-8-cyclopentyl-2-((4-(piperazin-1-yl)phenyl)amino)-5,8-dihydro-7H-spiro[pyrido[2,3-d]pyrimidine-6,3′-pyrrolidine]-2′,7-dione] | 1.4 nM | – | – | – | – | 2.67 nM | 104 nM | 48.2 nM | – | – | 11.1 nM | – | – | – | – |
| CN1CCN(c2ccc(Nc3ncc4c(n3)N(C3CCCC3)C(=O)[C@@]3(CCNC3=O)C4)cc2F)CC1 [Example D51, (R)-8-cyclopentyl-2-((3-fluoro-4-(4-methylpiperazin-1-yl)phenyl)amino)-5,8-dihydro-7H-spiro[pyrido[2,3-d]pyrimidine-6,3′-pyrrolidine]-2′,7-dione] | 211 nM | – | – | – | – | 444 nM | 11500 nM | 5940 nM | – | – | 1150 nM | – | – | – | – |
| CN1CCN(c2ccc(Nc3ncc4c(n3)N(C3CCCC3)C(=O)[C@]3(CCNC3=O)C4)cc2F)CC1 [Example D52, (S)-8-cyclopentyl-2-((3-fluoro-4-(4-methylpiperazin-1-yl)phenyl)amino)-5,8-dihydro-7H-spiro[pyrido[2,3-d]pyrimidine-6,3′-pyrrolidine]-2′,7-dione] | 0.904 nM | 122 nM | 257 nM | 151 nM | ≤ 10 nM | 1.94 nM | 101 nM | 53.1 nM | 318 nM | – | 5.75 nM | 925 nM | 509 nM | 184 nM | bioavailability [1]: 43.9%; AUC [1]: 37700 ng·h/mL; Cmax [1]: 4350 ng/mL; MRT [1]: 5.48 h; half-life [1]: 7.1 h; Cmax [2]: 6360 ng/mL; clearance [2]: 19.3 mL/min/kg; half-life [2]: 4.45 h |
